The assay has as its target h-TRPA1 (Homo sapiens (Human), UniProt O75762). Description: Dose response calcium flux (FLIPR) assay, ChanTest hTRPA1-CHO stably transfected cell line, cinnamaldehyde agonist. The format is cell-based. The following applies: for inhibition at 3 µM / inhibition at 10 µM / inhibition at 30 µM / inhibition at 1 µM: % inhibition of the inhibitor control, read-out: Inhibition % @ concentration; for IC50: CHO-K1 Tet-On TRPA1 cells, calcium flux, 100 uM cinnamaldehyde. The procedure: IC50 Determinations of Exemplified Compounds
Dose Response Assay: ChanTest hTRPA1-CHO Stably Transfected Cell Line
To induce expression, tetracycline was added to blasticidin/zeocin-free media at a final concentration of 1 ug/ml. Experiments were run at 24 hours post induction.
Plating Conditions CHOK1/TRPA1 Cells:
Harvested cells with 0.025% trypsin/EDTA.
Resuspended cells in growth media without selection antibiotics.
Measured cell density and diluted to 2.4×10^5 cells/ml in media containing 1 ug/ml Doxycycline Plate 25 ul/well into 384 well black/clear tissue culture-treated plates.
Incubated overnight at 37° C.
Replacement Buffer: Hank's Balanced Salt Solution, 20 mM HEPES along with 0.005% BSA and 2× Probenecid
Dye Loading Buffer: Cal-3 NW Calcium dye was prepared by dissolving the contents of one vial with 500 ml Hank's Balanced Salt Solution containing 20 mM HEPES. • Control compounds for CHOK1/TRPA1 cells:
AP-18, stock 10 mM, prepare 3.5× compound dilution in a Compound Buffer (HBSS/20 mM HEPES/0.005% BSA)—final concentration 10 uM.
Working solution 4.5× (final 100 uM in Compound Buffer: HBSS/20 mM HEPES/0.005% BSA)
Compounds dilutions were prepared from 5 or 10 mM stock (100% DMSO):
Compounds were tested at either 20 μM three folds dilution 11 steps out or 30 μM two folds dilution 11 steps out.
3 μl of diluted compound were transferred into Weidmann 384-well plate in duplicates side-by-side.
Compound plates were resuspended with 100 ul of HBSS/20 mM HEPES/0.005% BSA buffer (Compound Buffer):
Growth media was removed from the cell plates (20 ul) and 20 ul of the Replacement Buffer was added followed by addition of 25 ul of diluted dye. All three steps were performed using a Plate Washer BioTek 407. The plates were then incubated for 30′ at RT.
After incubation, both the cell and compound plates were brought to the FLIPR and 20 ul of the diluted compounds/antagonist/bk were transferred to the cell plates by the FLIPR. Plates were then incubated for 30′ at room temperature. After 30′ incubation, plates were returned to the FLIPR and 20 ul of 4.5× Cinnamaldehyde was added to the cell plates. During the compound addition as well as agonist addition, fluorescence readings were taken simultaneously from all 384 wells of the cell plate every 1.5 seconds. Five readings were taken to establish a stable baseline, then 20 ul of sample was rapidly (30 ul/sec) and simultaneously added to each well of the cell plate. The fluorescence was continuously monitored before, during and after sample/agonist addition for a total elapsed time of 100 seconds (compound addition) and 120 seconds (agonist addition). Responses (increase in peak fluorescence) in each well following agonist addition was determined. The initial fluorescence reading from each well, prior to ligand stimulation, was used a zero baseline value for the data from that well.

The structures appear in SMILES notation.

What is called IC50 is the point on the concentration scale where inhibition reaches its midpoint.

Sequence of h-TRPA1 (O75762 whole entry): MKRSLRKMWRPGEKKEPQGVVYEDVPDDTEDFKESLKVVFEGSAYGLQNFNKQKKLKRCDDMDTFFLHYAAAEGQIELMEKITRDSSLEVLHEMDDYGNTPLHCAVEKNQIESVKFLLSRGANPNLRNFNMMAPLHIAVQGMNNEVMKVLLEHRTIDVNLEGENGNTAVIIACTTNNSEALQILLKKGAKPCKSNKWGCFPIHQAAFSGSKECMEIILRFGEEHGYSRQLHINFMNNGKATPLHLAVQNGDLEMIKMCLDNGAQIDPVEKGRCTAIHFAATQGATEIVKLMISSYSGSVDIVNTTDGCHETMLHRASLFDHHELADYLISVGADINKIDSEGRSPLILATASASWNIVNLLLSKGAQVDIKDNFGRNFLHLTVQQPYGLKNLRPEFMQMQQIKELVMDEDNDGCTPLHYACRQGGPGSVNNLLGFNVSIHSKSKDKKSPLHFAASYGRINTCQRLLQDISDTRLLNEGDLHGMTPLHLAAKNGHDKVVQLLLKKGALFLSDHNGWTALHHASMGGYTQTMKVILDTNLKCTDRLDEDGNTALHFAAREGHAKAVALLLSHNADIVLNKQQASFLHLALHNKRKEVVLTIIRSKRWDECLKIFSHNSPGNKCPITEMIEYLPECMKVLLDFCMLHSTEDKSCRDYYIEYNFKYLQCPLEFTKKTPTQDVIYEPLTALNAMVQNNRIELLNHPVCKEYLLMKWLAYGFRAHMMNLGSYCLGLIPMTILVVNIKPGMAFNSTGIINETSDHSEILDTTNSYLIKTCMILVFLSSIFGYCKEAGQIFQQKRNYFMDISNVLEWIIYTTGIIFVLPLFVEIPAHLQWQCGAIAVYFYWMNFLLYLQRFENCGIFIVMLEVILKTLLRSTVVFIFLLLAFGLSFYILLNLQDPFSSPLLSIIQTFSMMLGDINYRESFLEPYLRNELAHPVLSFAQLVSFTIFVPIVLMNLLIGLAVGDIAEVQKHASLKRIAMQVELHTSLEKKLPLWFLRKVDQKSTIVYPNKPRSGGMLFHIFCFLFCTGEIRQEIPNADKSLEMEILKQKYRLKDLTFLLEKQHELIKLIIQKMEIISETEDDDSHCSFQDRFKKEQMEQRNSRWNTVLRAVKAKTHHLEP

On to `CC(C)(C)Nc1c(-c2cccc(Cl)c2)nc2c(Br)cc(Cl)cn12` [Example 8, [8-Bromo-6-chloro-2-(3-chloro-phenyl)-imidazo[1,2-a]pyridin-3-yl]-tert-butyl-amine], for which the inhibition at 3 µM amounted to 100% and the IC50 was 1090 nM.
As for `CC(C)(C)Nc1c(-c2cccc(Br)c2)nc2ccc(C(F)(F)F)cn12` [Example 17, [2-(3-Bromo-phenyl)-6-trifluoromethyl-imidazo[1,2-a]pyridin-3-yl]-tert-butyl-amine], the inhibition at 10 µM was 100% and the IC50 amounted to 264 nM.
For `CC(C)(C)Nc1c(-c2cccc(C#N)c2)nc2ccc(Cl)cn12` [Example 6, 3-(3-tert-Butylamino-6-chloro-imidazo[1,2-a]pyridin-2-yl)-benzonitrile], in that order: 90% and 2130 nM.
In the case of `CC(C)(C)Nc1c(-c2cccc(C#N)c2)nc2ccc(F)cn12` [Example 18, 3-(3-tert-Butylamino-6-fluoro-imidazo[1,2-a]pyridin-2-yl)-benzonitrile], the inhibition at 30 µM is 80.9% and the IC50 amounted to 20400 nM.
For `Cc1cc(Br)cn2c(NC(C)(C)C)c(-c3cccc(Cl)c3)nc12` [Example 10, [6-Bromo-2-(3-chloro-phenyl)-8-methyl-imidazo[1,2-a]pyridin-3-yl]-tert-butyl-amine], the inhibition at 10 µM was 100% and the IC50 was 221 nM.
With `Cc1cc2nc(-c3cccc(Cl)c3)c(NC(C)(C)C)n2cc1Br` [Example 9, [6-Bromo-2-(3-chloro-phenyl)-7-methyl-imidazo[1,2-a]pyridin-3-yl]-tert-butyl-amine], the inhibition at 30 µM amounted to 100% and the IC50 is 229 nM.
For the compound `C#Cc1cccc(-c2nc3ccc(C(F)(F)F)cn3c2NC(C)(C)C)c1` [Example 12, tert-Butyl-[2-(3-ethynyl-phenyl)-6-trifluoromethyl-imidazo[1,2-a]pyridin-3-yl]-amine], the inhibition at 1 µM was determined as 100% and the IC50 turned out to be 110 nM.
As for `C#Cc1cccc(-c2nc3ccc(C(F)(F)F)cn3c2NC(C)C)c1` [Example 15, [2-(3-Ethynyl-phenyl)-6-trifluoromethyl-imidazo[1,2-a]pyridin-3-yl]-isopropyl-amine], the inhibition at 10 µM turned out to be 100% and the IC50 stood at 82 nM.
In the case of `CC(C)Nc1c(-c2cccc(Cl)c2)nc2ccc(Br)cn12` [Example 1], the inhibition at 1 µM came out at 100% and the IC50 was 132 nM.
For `CC(C)Nc1c(-c2cccc(Cl)c2)nc2ccc(C(F)(F)F)cn12` [Example 16, [2-(3-Chloro-phenyl)-6-trifluoromethyl-imidazo[1,2-a]pyridin-3-yl]-isopropyl-amine], the inhibition at 3 µM stood at 100% and the IC50 was 143 nM.
For `CC(C)Nc1c(-c2cccc(Cl)c2)nc2ccc(Cl)cn12` [Example 2, [6-Chloro-2-(3-chloro-phenyl)-imidazo[1,2-a]pyridin-3-yl]-isopropyl-amine], the inhibition at 30 µM is 100% and the IC50 is 195 nM.
As to `CC(C)(C)Nc1c(-c2cccc(F)c2)nc2ccc(C(F)(F)F)cn12` [Example 4, tert-Butyl-[2-(3-fluoro-phenyl)-6-trifluoromethyl-imidazo[1,2-a]pyridin-3-yl]-amine], the inhibition at 3 µM was determined as 100% and the IC50 is 1330 nM.
For the compound `CC(C)(C)Nc1c(-c2cccc(C#N)c2)nc2ccc(C(F)(F)F)cn12` [Example 5, 3-(3-tert-Butylamino-6-trifluoromethyl-imidazo[1,2-a]pyridin-2-yl)-benzonitrile], the inhibition at 30 µM is 100% and the IC50 amounted to 854 nM.
For `CCNc1c(-c2cccc(Cl)c2)nc2ccc(C(F)(F)F)cn12` [Example 14, [2-(3-Chloro-phenyl)-6-trifluoromethyl-imidazo[1,2-a]pyridin-3-yl]-ethyl-amine] the same measures were 100% and 2070 nM.
On to `Clc1cccc(-c2nc3ccc(Cl)cn3c2NC2CC2)c1` [Example 7, [6-Chloro-2-(3-chloro-phenyl)-imidazo[1,2-a]pyridin-3-yl]-cyclopropyl-amine], for which the inhibition at 10 µM worked out at 100% and the IC50 stood at 1590 nM.
For `COC(=O)CNc1c(-c2cccc(F)c2)nc2ccc(F)cn12` [Example 3, [6-Fluoro-2-(3-fluoro-phenyl)-imidazo[1,2-a]pyridin-3-ylamino]-acetic acid methyl ester], the inhibition at 30 µM came to 74.3% and the IC50 stood at 3300 nM.
For `CC(C)(C)Nc1c(-c2cc(Cl)cc(Cl)c2)nc2ccc(C(F)(F)F)cn12` [Example 11, tert-Butyl-[2-(3,5-dichloro-phenyl)-6-trifluoromethyl-imidazo[1,2-a]pyridin-3-yl]-amine] the same measures were 98% and 1330 nM.
Regarding `CC(C)(C)Nc1c(-c2cccc(Cl)c2)nc2cc(C(F)(F)F)ccn12` [Example 13, tert-Butyl-[2-(3-chloro-phenyl)-7-trifluoromethyl-imidazo[1,2-a]pyridin-3-yl]-amine], the inhibition at 30 µM came out at 100% and the IC50 is 1120 nM.

Source of the values: patent US9394304B2, “Imidazopyridine derivatives” (Hoffmann-La Roche Inc., priority 2013, dated 2016).
